Patent US12071441B2, “10-(di(phenyl)methyl)-4-hydroxy-8,9,9A,10-tetrahydro-7H-pyrrolo[1′,2′:4,5]pyrazino[1,2-b]pyridazine-3,5-dione derivatives and related compounds as inhibitors of the orthomyxovirus replication for treating influenza” (Novartis AG, priority 2018, dated 2024)

Legend:
Assay in all cases: microbe, parasite or virus in culture
Assay type in all cases: cell-based
[1] = system: influenza A virus minigenome (PB2, PB1, PA, NP; luciferase reporter) in 293T cells, RNP_Alaska; details: HEK-293T, 48 h
[2] = system: influenza A virus minigenome (PB2, PB1, PA, NP; luciferase reporter) in 293T cells, RNP_CAL; details: HEK-293T, 48 h, read-out: RNP_CAL_EC50
[3] = system: influenza A virus minigenome (PB2, PB1, PA, NP; luciferase reporter) in 293T cells, RNP_Hubei; details: HEK-293T, 48 h

Compound | EC50 [1] | EC50 [2] | EC50 [3]
CCOC(=O)OC(C)Oc1c2n(ncc1=O)[C@@H]([C@H](c1ccccc1)c1cccc(F)c1F)[C@H]1CCCN1C2=O (stereo partly drawn) [Example 56, 1-(((9aR,10S)-10-((R)-(2,3-difluorophenyl)(phenyl)methyl)-3,5-dioxo-3,5,8,9,9a,10-hexahydro-7H-pyrrolo[1′,2′:4,5]pyrazino[1,2-b]pyridazin-4-yl)oxy)ethyl ethyl carbonate] | 100 to 1000 nM | 100 to 1000 nM | < 100 nM
CN(C)C(=O)OCOc1c2n(ncc1=O)[C@@H]([C@H](c1ccccc1)c1cccc(F)c1F)[C@H]1CCCN1C2=O [Example 57, (((9aR,10S)-10-((R)-(2,3-difluorophenyl)(phenyl)methyl)-3,5-dioxo-3,5,8,9,9a,10-hexahydro-7H-pyrrolo[1′,2′:4,5]pyrazino[1,2-b]pyridazin-4-yl)oxy)methyl dimethylcarbamate] | < 100 nM | < 100 nM | < 100 nM
CC(=O)Oc1c2n(ncc1=O)[C@@H]([C@H](c1ccccc1)c1cccc(F)c1F)[C@H]1CCCN1C2=O [Example 58, (9aR,10S)-10-((R)-(2,3-difluorophenyl)(phenyl)methyl)-3,5-dioxo-3,5,8,9,9a,10-hexahydro-7H-pyrrolo[1′,2′:4,5]pyrazino[1,2-b]pyridazin-4-yl acetate] | < 100 nM | < 100 nM | < 100 nM
CCC(=O)Oc1c2n(ncc1=O)[C@@H]([C@H](c1ccccc1)c1cccc(F)c1F)[C@H]1CCCN1C2=O [Example 59, (9aR,10S)-10-((R)-(2,3-difluorophenyl)(phenyl)methyl)-3,5-dioxo-3,5,8,9,9a,10-hexahydro-7H-pyrrolo[1′,2′:4,5]pyrazino[1,2-b]pyridazin-4-yl propionate] | < 100 nM | < 100 nM | < 100 nM
CC(C)CC(=O)Oc1c2n(ncc1=O)[C@@H]([C@H](c1ccccc1)c1cccc(F)c1F)[C@H]1CCCN1C2=O [Example 60, (9aR,10S)-10-((R)-(2,3-difluorophenyl)(phenyl)methyl)-3,5-dioxo-3,5,8,9,9a,10-hexahydro-7H-pyrrolo[1′,2′:4,5]pyrazino[1,2-b]pyridazin-4-yl 3-methylbutanoate] | < 100 nM | < 100 nM | < 100 nM
COCCC(=O)Oc1c2n(ncc1=O)[C@@H]([C@H](c1ccccc1)c1cccc(F)c1F)[C@H]1CCCN1C2=O [Example 61, (9aR,10S)-10-((R)-(2,3-difluorophenyl)(phenyl)methyl)-3,5-dioxo-3,5,8,9,9a,10-hexahydro-7H-pyrrolo[1′,2′:4,5]pyrazino[1,2-b]pyridazin-4-yl 3-methoxypropanoate] | < 100 nM | < 100 nM | < 100 nM
CC(C)(C)C(=O)Oc1c2n(ncc1=O)[C@@H]([C@H](c1ccccc1)c1cccc(F)c1F)[C@H]1CCCN1C2=O [Example 62, (9aR,10S)-10-((R)-(2,3-difluorophenyl)(phenyl)methyl)-3,5-dioxo-3,5,8,9,9a,10-hexahydro-7H-pyrrolo[1′,2′:4,5]pyrazino[1,2-b]pyridazin-4-yl pivalate] | < 100 nM | < 100 nM | < 100 nM
CC(C)(C)C(=O)OCOc1c2n(ncc1=O)[C@@H]([C@H](c1ccccc1)c1cccc(F)c1F)[C@H]1CCCN1C2=O [Example 63, (((9aR,10S)-10-((R)-(2,3-difluorophenyl)(phenyl)methyl)-3,5-dioxo-3,5,8,9,9a,10-hexahydro-7H-pyrrolo[1′,2′:4,5]pyrazino[1,2-b]pyridazin-4-yl)oxy)methyl pivalate] | < 100 nM | < 100 nM | < 100 nM
CCN(CC)C(=O)OCOc1c2n(ncc1=O)[C@@H]([C@H](c1ccccc1)c1cccc(F)c1F)[C@H]1CCCN1C2=O [Example 67, (((9aR,10S)-10-((R)-(2,3-difluorophenyl)(phenyl)methyl)-3,5-dioxo-3,5,8,9,9a,10-hexahydro-7H-pyrrolo[1′,2′:4,5]pyrazino[1,2-b]pyridazin-4-yl)oxy)methyl diethylcarbamate] | ≥ 1000 nM | ≥ 1000 nM | ≥ 1000 nM
CCN(C)C(=O)OCOc1c2n(ncc1=O)[C@@H]([C@H](c1ccccc1)c1cccc(F)c1F)[C@H]1CCCN1C2=O [Example 68, (((9aR,10S)-10-((R)-(2,3-difluorophenyl)(phenyl)methyl)-3,5-dioxo-3,5,8,9,9a,10-hexahydro-7H-pyrrolo[1′,2′:4,5]pyrazino[1,2-b]pyridazin-4-yl)oxy)methyl ethyl(methyl)carbamate] | ≥ 1000 nM | ≥ 1000 nM | ≥ 1000 nM
O=C(Oc1c2n(ncc1=O)[C@@H]([C@H](c1ccccc1)c1cccc(F)c1F)[C@H]1CCCN1C2=O)c1ccccc1 [Example 69, (9aR,10S)-10-((R)-(2,3-difluorophenyl)(phenyl)methyl)-3,5-dioxo-3,5,8,9,9a,10-hexahydro-7H-pyrrolo[1′,2′:4,5]pyrazino[1,2-b]pyridazin-4-yl benzoate] | < 100 nM | < 100 nM | < 100 nM
COC(=O)c1ccccc1C(=O)Oc1c2n(ncc1=O)[C@@H]([C@H](c1ccccc1)c1cccc(F)c1F)[C@H]1CCCN1C2=O [Example 70, (9aR,10S)-10-((R)-(2,3-difluorophenyl)(phenyl)methyl)-3,5-dioxo-3,5,8,9,9a,10-hexahydro-7H-pyrrolo[1′,2′:4,5]pyrazino[1,2-b]pyridazin-4-yl methyl phthalate] | < 100 nM | < 100 nM | < 100 nM
CCN(CC)C(=O)Oc1c2n(ncc1=O)[C@@H]([C@H](c1ccccc1)c1cccc(F)c1F)[C@H]1CCCN1C2=O [Example 71, (9aR,10S)-10-((R)-(2,3-difluorophenyl)(phenyl)methyl)-3,5-dioxo-3,5,8,9,9a,10-hexahydro-7H-pyrrolo[1′,2′:4,5]pyrazino[1,2-b]pyridazin-4-yl diethylcarbamate] | 100 to 1000 nM | 100 to 1000 nM | 100 to 1000 nM
CC(C)CC(=O)OCOc1c2n(ncc1=O)[C@@H]([C@H](c1ccccc1)c1cccc(F)c1F)[C@H]1CCCN1C2=O [Example 72, (((9aR,10S)-10-((R)-(2,3-difluorophenyl)(phenyl)methyl)-3,5-dioxo-3,5,8,9,9a,10-hexahydro-7H-pyrrolo[1′,2′:4,5]pyrazino[1,2-b]pyridazin-4-yl)oxy)methyl 3-methylbutanoate] | < 100 nM | < 100 nM | < 100 nM
O=C(CC1CCOCC1)Oc1c2n(ncc1=O)[C@@H]([C@H](c1ccccc1)c1cccc(F)c1F)[C@H]1CCCN1C2=O [Example 73, (9aR,10S)-10-((R)-(2,3-difluorophenyl)(phenyl)methyl)-3,5-dioxo-3,5,8,9,9a,10-hexahydro-7H-pyrrolo[1′,2′:4,5]pyrazino[1,2-b]pyridazin-4-yl 2-(tetrahydro-2H-pyran-4-yl)acetate] | < 100 nM | < 100 nM | < 100 nM
O=C(Oc1c2n(ncc1=O)[C@@H]([C@H](c1ccccc1)c1cccc(F)c1F)[C@H]1CCCN1C2=O)OC1CCOCC1 [Example 74, (9aR,10S)-10-((R)-(2,3-difluorophenyl)(phenyl)methyl)-3,5-dioxo-3,5,8,9,9a,10-hexahydro-7H-pyrrolo[1′,2′:4,5]pyrazino[1,2-b]pyridazin-4-yl (tetrahydro-2H-pyran-4-yl) carbonate] | < 100 nM | < 100 nM | < 100 nM
